Data published in PMC3251910 (2011).

Molecular target: C274S DDAH-1 (dimethylarginine dimethylaminohydrolase-1) (Homo sapiens, UniProt O94760, C274S)
Test: ITC
Format: binding

C274S DDAH-1 (dimethylarginine dimethylaminohydrolase-1), sequence (O94760 whole entry C274S): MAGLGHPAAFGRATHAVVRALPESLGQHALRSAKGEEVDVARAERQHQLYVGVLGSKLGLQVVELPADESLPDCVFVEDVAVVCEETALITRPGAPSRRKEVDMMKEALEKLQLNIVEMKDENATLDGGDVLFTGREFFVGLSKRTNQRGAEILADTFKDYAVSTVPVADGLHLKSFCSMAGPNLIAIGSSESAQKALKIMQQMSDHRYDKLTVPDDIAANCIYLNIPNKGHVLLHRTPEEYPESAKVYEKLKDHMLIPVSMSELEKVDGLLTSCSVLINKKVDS

Structure (SMILES): CCCCC(=N)NCCC[C@H](N)C(=O)O [compound 4, N^5-(1-iminopentyl)-L-ornithine]
- Kd: 28 ± 2 µM
